Laboratory results taken from BindingDB's records for doi:10.1021/np9005629 (Seoul National University, 2010).
Where a name gives a salt, the structure may show the parent alone.

Biological target: T1, Sortase family protein (Staphylococcus aureus, UniProt Q9S446)
T1 sequence (Q9S446 whole entry): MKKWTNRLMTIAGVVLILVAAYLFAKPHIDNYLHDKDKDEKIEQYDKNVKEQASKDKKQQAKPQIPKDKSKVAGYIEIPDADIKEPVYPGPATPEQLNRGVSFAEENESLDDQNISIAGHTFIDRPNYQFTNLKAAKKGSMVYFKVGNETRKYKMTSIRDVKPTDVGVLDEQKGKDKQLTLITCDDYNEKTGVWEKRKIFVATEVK
Assay: Inhibition of Staphylococcus aureus sortase A after 1 hr in the presence of fluorescent peptide […]-QALPETGEE-Edans by fluorimetry

`O=C(O)c1cc[c]([Hg][OH])cc1` [para-(Hydroxymercury)benzoic acid sodium salt] was tested, and the IC50 was 111 µM.
